# Assay results: US12559750B2, “Methods and compositions for treatment of polycystic kidney disease” (Regulus Therapeutics Inc., priority 2021, dated 2026)
# Columns and labels:
# AMPA-R = experiment: [3H]AMPA radioligand binding assay on rat brain synaptic membranes;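 further: competition binding in which test compounds at rising concentrations displace [3H]AMPA from AMPA-R on rat brain synaptic membranes, with reduced bound radioligand as read-out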
# Description: The activity of anti-miR-17 compounds was evaluated in a radioligand binding assay which measured the binding of the [^3H] AMPA ligand to the AMPA-R present on rat brain synaptic membranes, in the presence of increasing concentrations of anti-miR-17 compound, anti-miR-17 compounds with affinity for the AMPA-R will bind to and compete with the binding of the [^3H] AMPA ligand.
# 5.0 nM of the ligand [^3H] AMPA, 1.0 mM of the non-specific ligand L-Glutamic acid, and anti-miR compound at uM concentrations were incubated with synaptic membranes prepared from Wistar rat cerebral cortex for 90 minutes.
# The compounds were tested in the radioligand binding assay described herein, to determine the ability of the anti-miR-17 compounds to and compete with the binding of the [3H] AMPA ligand.
# AMPA-R (GluA1/GluA4) = molecular target: T1, AMPA-R (GluA1/GluA4) (Homo sapiens, UniProt P42261+P48058); experiment: Manual whole-cell patch clamp, ChanTest GluA1/GluA4 EZCells; format: cell-based
# T1 construct: host or cells: ChanTest GluA1/GluA4 EZCells
# Description: To evaluate functional antagonism of anti-miR-17 oligonucleotides towards the AMPA-R, certain oligonucleotides were tested using the manual whole-cell patch clamp technique, which records membrane currents as a measure of AMPA-R activity.
# Manual whole-cell patch clamp studies were performed by Metrion Biosciences (Cambridge, UK). Whole-cell voltage clamp experiments were performed at room temperature (18-21° C.) using an EPC10 patch clamp amplifier using Patchmaster software (HEKA Elektronik). Glass patch pipettes were fabricated from borosilicate glass capillaries (Harvard Apparatus) to resistances between 1.4 and 2.5 MΩ. Membrane currents were recorded using the whole-cell patch clamp technique. ChanTest® GluA1/GluA4 EZCells were clamped at a holding potential of −80 mV and membrane currents elicited by 10 μM(S)-AMPA delivered using a VC38 perfusion system (ALA Scientific Instruments). The […] current amplitude values were measured with each application of 10 μM(S)-AMPA. The fractional change of current amplitude produced by each concentration of compound was calculated relative to the control current (pre-compound) and expressed as percentage change (% inhibition) for each cell. RGLS4326 was tested in a separate study from all other compounds in Table 6.
# C57Bl/6J male mice = experiment: ICV maximum tolerated dose study, Study 1; format: in vivo, mouse; conditions: for Mortality/total number of mice: 7-day
# Description: Compounds (RG-NG-1017, RGLS4326, RG-NG-1001) were evaluated in a pilot maximum tolerated dose (MTD) study (discussed below). RG-NG-1017, RGLS4326 and RG-NG-1001 were initially evaluated at 4 dose-levels each. RG-NG-1017 was included for evaluation as a non-AMPA-R binding compound, as compared to RGLS4326 and RG-NG-1001, which bind AMPA-R. C57Bl/6J male mice (Jackson Laboratories), age 6-7 weeks, were used in this study. Mice were assigned randomly to treatment groups, and the study was blinded. Animals were allowed to acclimate for no less than 5 days and housed on a 12 hr light/dark cycle (lights on 7:00 AM). No more than 4 mice were house in each cage in a ventilated cage rack system. The diet consisted of standard rodent chow and water ad libitum.
# The following parameters were used for this study: • 1. Route(s) of administration: intracerebroventricular (ICV) dosing of RG-NG-1017, RG-NG-1001, RGLS4326 • 2. Dose Volume(s): 4 μL • 3. Formulation(s): vehicle, Ca^2+ and Mg^2+ free dPBS • 4. Dose Frequency: Once • 5. Study duration: 8 Days • 6. Number of Groups: 3 • 7. Number of animals per group: (2-4 each group) • 8. Total number of animals: […]
# For the ICV administration, mice were anesthetized and positioned for injections. The skin over the skull was incised, and a small hole was made in the skull above the target using a microdrill. The stereotactic coordinates were anteroposterior (AP), −0.4 mm; mediolateral (ML), +/−1.0-1.5 mm; dorsoventral (DV), −3.0 mm from the bregma for injection into both the right and left lateral cerebral ventricles (Hironaka et al, 2015). Animals were injected unilaterally with 4 μl into the right lateral cerebral ventricle. Compounds were injected over 1-2 min, and the needle was left in place for 0.5-1 min prior to withdrawal. The incision was closed with sutures, wound clips, or VetBond.
# Following ICV treatment (Day 0), animals were monitored for 7 days in which daily health checks, body weight, and mortality was recorded. On Day 7, brain and kidney were collected and fixed (10% formalin) and stored pending histology.
# miR-17 [1] = experiment: miR-17 luciferase sensor assay in HeLa cells; format: cell-based
# Description: The in vitro potency of certain compounds was evaluated using a miR-17 luciferase sensor assay which uses a luciferase reporter vector for miR-17, with two fully complementary miR-17 binding sites in tandem in the 3′-UTR of the luciferase gene. HeLa cells were co-transfected with the luciferase reporter vector and an exogenous miR-17-expression vector that acted to repress the luciferase signal.
# miR-17 [2] = experiment: miR-17 PD-Sig in mouse kidney cell lines; format: cell-based
# Description: The activity of certain compounds was evaluated using a mouse miR-17 Pharmacodynamic-Signature (miR-17 PD-Sig), which consists of the expression of 18 unique miR-17 target genes normalized by six reference housekeeping genes, to provide an unbiased and comprehensive assessment of miR-17 activity. The mouse miR-17 PD-Sig score was the calculated average of the 18 genes' individual log 2 fold changes (normalized by six housekeeping genes) compared to mock transfection (Lee et al., Nat. Commun., 2019, 10, 4148).
# The PD-Sig for RGLS4326 in mIMCD3 cells (77.2, indicated by “*”) was not generated in this experiment; the value in Table 14 is that reported by Lee et al., Nat. Commun., 2019, 10, 4148. Blank cells in the table indicate that a compound was not tested in a particular cell line.
# miR-17 [3] = experiment: miR-17 PD-Sig in human kidney cell lines; format: cell-based
# miR-17 [4] = experiment: microRNA polysome shift assay (miPSA) in kidney of wild type mice; format: in vivo, mouse; set-up: scale not given here; conditions: seven days later
# Description: In vivo potency was evaluated using the microRNA polysome shift assay (miPSA). This assay was used to determine the extent to which compounds directly engage the miR-17 target in the kidney in normal and PKD mice. The miPSA relies on the principle that active miRNAs bind to their mRNA targets in translationally active high molecular weight (HMW) polysomes, whereas the inhibited miRNAs reside in the low MW (LMW) polysomes. Treatment with anti-miR results in a shift of the microRNA from HMW polysomes to LMW polysomes. Thus, the miPSA provides a direct measurement of microRNA target engagement by a complementary anti-miR (Androsavich et al., Nucleic Acids Research, 2015, 44: e13).
# Wild type mice were administered a single dose of 0.3 mg/kg, 3 mg/kg, or 30 mg/kg. Kidney tissue was collected seven days later and subjected to the miPSA. The mean displacement score for each treatment is shown in Table 15 (PBS, n=17; RGLS4326 30 mg/kg, n=10; all other treatments, n=4-5). The tested oligonucleotides displaced miR-17 from translationally active polysome (as measured by miPSA) in normal mouse kidneys.
# mice = conditions: in vivo
# Description: Each compound was tested in a single dose at 2000 mg/kg, and at escalating doses (100, 450, and 2000 mg/kg).
# T1 sequence (P42261 19-906): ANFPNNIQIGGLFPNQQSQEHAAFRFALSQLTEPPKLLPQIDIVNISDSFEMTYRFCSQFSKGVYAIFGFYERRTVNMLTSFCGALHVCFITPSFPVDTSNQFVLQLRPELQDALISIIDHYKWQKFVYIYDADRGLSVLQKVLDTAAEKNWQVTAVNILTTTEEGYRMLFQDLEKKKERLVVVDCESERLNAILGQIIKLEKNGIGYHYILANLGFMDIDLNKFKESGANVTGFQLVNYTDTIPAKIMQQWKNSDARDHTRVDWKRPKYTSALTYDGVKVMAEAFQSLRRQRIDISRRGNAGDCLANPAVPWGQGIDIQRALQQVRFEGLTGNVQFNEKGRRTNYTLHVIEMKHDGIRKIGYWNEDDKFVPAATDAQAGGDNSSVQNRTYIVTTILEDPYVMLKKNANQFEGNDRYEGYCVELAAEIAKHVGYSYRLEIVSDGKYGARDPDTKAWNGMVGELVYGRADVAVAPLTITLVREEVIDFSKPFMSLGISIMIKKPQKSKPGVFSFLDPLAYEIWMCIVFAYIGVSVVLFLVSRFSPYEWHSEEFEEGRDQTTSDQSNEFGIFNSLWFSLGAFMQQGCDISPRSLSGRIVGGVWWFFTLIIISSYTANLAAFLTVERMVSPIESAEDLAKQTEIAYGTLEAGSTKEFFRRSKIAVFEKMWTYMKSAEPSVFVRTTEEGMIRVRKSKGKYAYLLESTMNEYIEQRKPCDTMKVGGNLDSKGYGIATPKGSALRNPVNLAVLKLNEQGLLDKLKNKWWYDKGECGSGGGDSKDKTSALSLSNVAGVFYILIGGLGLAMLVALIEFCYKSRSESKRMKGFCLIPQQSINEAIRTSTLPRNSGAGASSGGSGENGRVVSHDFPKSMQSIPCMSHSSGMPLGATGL
# T1 sequence (P48058 21-902): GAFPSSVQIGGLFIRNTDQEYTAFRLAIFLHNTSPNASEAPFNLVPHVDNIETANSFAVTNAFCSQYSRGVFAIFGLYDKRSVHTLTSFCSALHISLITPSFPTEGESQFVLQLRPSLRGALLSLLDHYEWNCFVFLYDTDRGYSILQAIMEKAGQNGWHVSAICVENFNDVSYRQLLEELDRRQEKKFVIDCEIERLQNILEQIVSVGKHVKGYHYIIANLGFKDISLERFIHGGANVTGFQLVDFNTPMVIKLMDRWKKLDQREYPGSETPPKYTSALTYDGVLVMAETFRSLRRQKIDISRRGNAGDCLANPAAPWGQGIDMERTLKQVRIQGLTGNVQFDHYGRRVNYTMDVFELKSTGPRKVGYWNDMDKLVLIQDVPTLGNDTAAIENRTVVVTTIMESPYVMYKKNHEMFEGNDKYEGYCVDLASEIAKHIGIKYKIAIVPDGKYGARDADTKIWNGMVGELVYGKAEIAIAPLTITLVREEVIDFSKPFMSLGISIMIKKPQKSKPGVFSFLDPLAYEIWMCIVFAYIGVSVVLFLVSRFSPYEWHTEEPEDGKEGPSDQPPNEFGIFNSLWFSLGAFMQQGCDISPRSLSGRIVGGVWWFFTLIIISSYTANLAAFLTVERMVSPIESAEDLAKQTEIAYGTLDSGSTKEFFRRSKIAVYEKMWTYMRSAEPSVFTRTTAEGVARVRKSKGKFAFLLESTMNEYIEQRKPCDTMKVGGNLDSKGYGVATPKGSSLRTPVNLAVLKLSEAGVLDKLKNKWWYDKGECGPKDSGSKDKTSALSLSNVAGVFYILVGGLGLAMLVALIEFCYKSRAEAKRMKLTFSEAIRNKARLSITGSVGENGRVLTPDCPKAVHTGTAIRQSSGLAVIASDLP
sequence,measurement,setting,value
ASGSCMAFCFUFUMUSUS [RG-NG-1017],IC50,AMPA-R; Experiment #2,> 100000 nM
same,% Inhibition @ 0.1 uM,"AMPA-R; Experiment #2, 0.1 uM",0.2%
same,% Inhibition @ 1 uM,"AMPA-R; Experiment #2, 1 uM",−1.3%
same,% Inhibition @ 10 uM,"AMPA-R; Experiment #2, 10 uM",4.3%
same,% Inhibition @ 100 uM,"AMPA-R; Experiment #2, 100 uM",8.1%
same,% Inhibition on membrane currents evoked with 10 uM (s)-AMPA (Mean ± SD),AMPA-R (GluA1/GluA4); 0.3 uM compound,20.0 ± 6.3%
same,% Inhibition on membrane currents evoked with 10 uM (s)-AMPA (Mean ± SD),AMPA-R (GluA1/GluA4); 3 uM compound,28.2 ± 5.5%
same,functional antagonism towards AMPA-R relative to RGLS4326,AMPA-R (GluA1/GluA4); in words,reduced functional antagonism towards AMPA-R
same,MTD higher than that of RGLS4326,C57Bl/6J male mice; single ICV,> 40 fold
same,Mortality/total number of mice,C57Bl/6J male mice; single ICV 50 μg,0/2
same,Mortality/total number of mice,C57Bl/6J male mice; single ICV 100 μg,0/2
same,Mortality/total number of mice,C57Bl/6J male mice; single ICV 300 μg,1/2
same,Mortality/total number of mice,C57Bl/6J male mice; single ICV 600 μg,0/2
same,MTD,"C57Bl/6J male mice; single ICV, C57Bl/6J mice, predicted from the study",no established MTD
same,Log2FC (37.5 nM),miR-17 [1]; 37.5 nM,2.67
same,EC50,"miR-17 [1]; HeLa cells, 18- to 24-hour transfection",15 nM
same,EC50,"miR-17 [2]; D52B5, mouse, PKD",74.1 nM
same,EC50,"miR-17 [2]; mIMCD3, mouse, Normal",134 nM
same,EC50,"miR-17 [3]; HK-2, human, Normal",49.2 nM
same,EC50,"miR-17 [3]; WT9-7, human, PKD",20.1 nM
same,"miPSA Displacement Score, Mean",miR-17 [4]; single dose 3 mg/kg,2.292
same,"miPSA Displacement Score, Mean",miR-17 [4]; single dose 30 mg/kg,2.793
same,"miPSA Displacement Score, Mean",miR-17 [4]; single dose 0.3 m/kg,2.077
same,CNS toxicity in high-dose mouse toxicity studies,mice,no CNS-toxicity were observed
same,CNS-related findings noted,"mice; mouse, sc, 2000 mg/kg",No
